Assay results: patent publication US8952024B2, “Herbicidal pyrimidone derivatives” (E I du Pont de Nemours and Company, priority 2009, dated 2015)

Key:
Assay in all cases: Test B pre-/postemergence plant response
Assay type in all cases: in vivo
[1] = tested on: johnsongrass (Sorghum halepense); conditions: for Johnsongrass plant response rating (0 to 100 scale): 62 g ai/ha, 0 is no effect, 13 to 15 days
Method in brief: (§1)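 Visually scored on a 0 to 100 scale after 13 to 15 days in greenhouse versus controls. Treatments were preemergence on seeded loam/sand soil and postemergence on 1- to 4-leaf plants.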

kochia (Kochia scoparia) = conditions: for Kochia plant response rating (0 to 100 scale): 62 g ai/ha, 0 is no effect, 13 to 15 days
Method in brief: as §1

[2] = tested on: lambsquarters (Chenopodium album); conditions: for Lambsquarters plant response rating (0 to 100 scale): 62 g ai/ha, 0 is no effect, 13 to 15 days
Method in brief: as §1

[3] = tested on: Surinam grass (Brachiaria decumbens); conditions: for Surinam Grass plant response rating (0 to 100 scale): 62 g ai/ha, postemergence, 0 is no effect, 100 is complete control, 13 to 15 days; for Plant response rating, Surinam Grass: Postemergence, scale 0 to 100 (0 no effect, 100 complete control)
Method in brief: as §1

[4] = tested on: ragweed (common ragweed, Ambrosia elatior); conditions: for Ragweed plant response rating (0 to 100 scale): 62 g ai/ha, postemergence, 0 is no effect, 100 is complete control, 13 to 15 days; for Plant response rating, Ragweed: Postemergence, scale 0 to 100 (0 no effect, 100 complete control)
Method in brief: as §1

[5] = tested on: downy bromegrass (Bromus tectorum); conditions: for Bromegrass, Downy plant response rating (0 to 100 scale): 62 g ai/ha, 0 is no effect, 13 to 15 days
Method in brief: as §1

[6] = tested on: large crabgrass (Digitaria sanguinalis); conditions: for Crabgrass, Large plant response rating (0 to 100 scale): 62 g ai/ha, 0 is no effect, 13 to 15 days
Method in brief: as §1

[7] = tested on: Italian ryegrass (Lolium multiflorum); conditions: for Ryegrass, Italian plant response rating (0 to 100 scale): 62 g ai/ha, postemergence, 0 is no effect, 100 is complete control, 13 to 15 days; for Plant response rating, Ryegrass, Italian: Postemergence, scale 0 to 100 (0 no effect, 100 complete control)
Method in brief: as §1

[8] = tested on: velvetleaf (Abutilon theophrasti); conditions: for Velvetleaf plant response rating (0 to 100 scale): 62 g ai/ha, postemergence, 0 is no effect, 100 is complete control, 13 to 15 days; for Plant response rating, Velvetleaf: Postemergence, scale 0 to 100 (0 no effect, 100 complete control)
Method in brief: as §1

[9] = tested on: woolly cupgrass (Eriochloa villosa); conditions: for Cupgrass, Woolly plant response rating (0 to 100 scale): 62 g ai/ha, 0 is no effect, 13 to 15 days
Method in brief: as §1

[10] = tested on: giant foxtail (Setaria faberii); conditions: for Foxtail, Giant plant response rating (0 to 100 scale): 62 g ai/ha, 0 is no effect, 13 to 15 days
Method in brief: as §1

[11] = tested on: goosegrass (Eleusine indica); conditions: for Goosegrass plant response rating (0 to 100 scale): 62 g ai/ha, 0 is no effect, 13 to 15 days
Method in brief: as §1

[12] = tested on: green foxtail (Setaria viridis); conditions: for Foxtail, Green plant response rating (0 to 100 scale): 62 g ai/ha, 0 is no effect, 13 to 15 days
Method in brief: as §1

corn (Zea mays) = conditions: for Corn plant response rating (0 to 100 scale): 62 g ai/ha, 0 is no effect, 13 to 15 days
Method in brief: as §1

[13] = tested on: yellow nutsedge (Cyperus esculentus); conditions: for Nutsedge, Yellow plant response rating (0 to 100 scale): 62 g ai/ha, 0 is no effect, 13 to 15 days
Method in brief: as §1

[14] = tested on: blackgrass (Alopecurus myosuroides); conditions: for Blackgrass plant response rating (0 to 100 scale): 62 g ai/ha, 0 is no effect, 13 to 15 days
Method in brief: as §1

[15] = tested on: bermudagrass (Cynodon dactylon); conditions: for Bermudagrass plant response rating (0 to 100 scale): 62 g ai/ha, 0 is no effect, 13 to 15 days
Method in brief: as §1

[16] = 31 g ai/ha, postemergence, scale 0 to 100, 0 is no effect, 100 is complete control
[17] = postemergence, 100 is complete control
[18] = Postemergence, 125 g ai/ha, scale 0 to 100 (0 no effect, 100 complete control)
[19] = Postemergence, 250 g ai/ha, scale 0 to 100 (0 no effect, 100 complete control)

## O=C1CCCC(O)=C1C(=O)c1cnc(-c2ccsc2)n(C2CCCCC2)c1=O [Compound 99]
[1]; [16]
  Plant response rating, Johnsongrass: 70
[1]; [17]
  Johnsongrass plant response rating (0 to 100 scale): 75
[1]; [18]
  Plant response rating, Johnsongrass: 80
[1]; [19]
  Plant response rating, Johnsongrass: 95
Kochia (Kochia scoparia); [16]
  Plant response rating, Kochia: 80
Kochia (Kochia scoparia); [17]
  Kochia plant response rating (0 to 100 scale): 80
Kochia (Kochia scoparia); [18]
  Plant response rating, Kochia: 100
Kochia (Kochia scoparia); [19]
  Plant response rating, Kochia: 100
[2]; [16]
  Plant response rating, Lambsquarters: 98
[2]; [17]
  Lambsquarters plant response rating (0 to 100 scale): 100
[2]; [18]
  Plant response rating, Lambsquarters: 100
[2]; [19]
  Plant response rating, Lambsquarters: 100
[3]
  Surinam Grass plant response rating (0 to 100 scale): 70
[3]; 125 g ai/ha
  Plant response rating, Surinam Grass: 75
[3]; 250 g ai/ha
  Plant response rating, Surinam Grass: 80
[4]
  Ragweed plant response rating (0 to 100 scale): 80
[4]; 125 g ai/ha
  Plant response rating, Ragweed: 80
[4]; 250 g ai/ha
  Plant response rating, Ragweed: 95
[5]; [16]
  Plant response rating, Bromegrass, Downy: 5
[5]; [17]
  Bromegrass, Downy plant response rating (0 to 100 scale): 5
[5]; [18]
  Plant response rating, Bromegrass, Downy: 25
[5]; [19]
  Plant response rating, Bromegrass, Downy: 25
[6]; [16]
  Plant response rating, Crabgrass, Large: 85
[6]; [17]
  Crabgrass, Large plant response rating (0 to 100 scale): 85
[6]; [18]
  Plant response rating, Crabgrass, Large: 95
[6]; [19]
  Plant response rating, Crabgrass, Large: 95
[7]
  Ryegrass, Italian plant response rating (0 to 100 scale): 0
[7]; 125 g ai/ha
  Plant response rating, Ryegrass, Italian: 20
[7]; 250 g ai/ha
  Plant response rating, Ryegrass, Italian: 20
[8]
  Velvetleaf plant response rating (0 to 100 scale): 100
[8]; 125 g ai/ha
  Plant response rating, Velvetleaf: 100
[8]; 250 g ai/ha
  Plant response rating, Velvetleaf: 100
[9]; [16]
  Plant response rating, Cupgrass, Woolly: 70
[9]; [17]
  Cupgrass, Woolly plant response rating (0 to 100 scale): 75
[9]; [18]
  Plant response rating, Cupgrass, Woolly: 80
[9]; [19]
  Plant response rating, Cupgrass, Woolly: 85
[10]; [16]
  Plant response rating, Foxtail, Giant: 75
[10]; [17]
  Foxtail, Giant plant response rating (0 to 100 scale): 80
[10]; [18]
  Plant response rating, Foxtail, Giant: 95
[10]; [19]
  Plant response rating, Foxtail, Giant: 95
[11]; [16]
  Plant response rating, Goosegrass: 75
[11]; [17]
  Goosegrass plant response rating (0 to 100 scale): 75
[11]; [18]
  Plant response rating, Goosegrass: 75
[11]; [19]
  Plant response rating, Goosegrass: 80
[12]; [16]
  Plant response rating, Foxtail, Green: 50
[12]; [17]
  Foxtail, Green plant response rating (0 to 100 scale): 90
[12]; [18]
  Plant response rating, Foxtail, Green: 95
[12]; [19]
  Plant response rating, Foxtail, Green: 98
Corn (Zea mays); [16]
  Plant response rating, Corn: 40
Corn (Zea mays); [17]
  Corn plant response rating (0 to 100 scale): 65
Corn (Zea mays); [18]
  Plant response rating, Corn: 65
Corn (Zea mays); [19]
  Plant response rating, Corn: 80
[13]; [16]
  Plant response rating, Nutsedge, Yellow: 45
[13]; [17]
  Nutsedge, Yellow plant response rating (0 to 100 scale): 70
[13]; [18]
  Plant response rating, Nutsedge, Yellow: 70
[13]; [19]
  Plant response rating, Nutsedge, Yellow: 75
[14]; [16]
  Plant response rating, Blackgrass: 0
[14]; [17]
  Blackgrass plant response rating (0 to 100 scale): 0
[14]; [18]
  Plant response rating, Blackgrass: 5
[14]; [19]
  Plant response rating, Blackgrass: 15
[15]; [16]
  Plant response rating, Bermudagrass: 75
[15]; [17]
  Bermudagrass plant response rating (0 to 100 scale): 75
[15]; [18]
  Plant response rating, Bermudagrass: 80
[15]; [19]
  Plant response rating, Bermudagrass: 98

## CCCn1c(-c2cccc(OC)c2)ncc(C(=O)C2=C(O)CCCC2=O)c1=O [Compound 100]
[1]; [16]
  Plant response rating, Johnsongrass: 0
[1]; [17]
  Johnsongrass plant response rating (0 to 100 scale): 5
[1]; [18]
  Plant response rating, Johnsongrass: 10
[1]; [19]
  Plant response rating, Johnsongrass: 25
Kochia (Kochia scoparia); [17]
  Kochia plant response rating (0 to 100 scale): 95
Kochia (Kochia scoparia); [18]
  Plant response rating, Kochia: 98
Kochia (Kochia scoparia); [19]
  Plant response rating, Kochia: 100
[2]; [16]
  Plant response rating, Lambsquarters: 95
[2]; [17]
  Lambsquarters plant response rating (0 to 100 scale): 98
[2]; [18]
  Plant response rating, Lambsquarters: 98
[2]; [19]
  Plant response rating, Lambsquarters: 98
[3]
  Surinam Grass plant response rating (0 to 100 scale): 65
[3]; 125 g ai/ha
  Plant response rating, Surinam Grass: 65
[3]; 250 g ai/ha
  Plant response rating, Surinam Grass: 75
[4]
  Ragweed plant response rating (0 to 100 scale): 70
[4]; 125 g ai/ha
  Plant response rating, Ragweed: 75
[4]; 250 g ai/ha
  Plant response rating, Ragweed: 80
[5]; [16]
  Plant response rating, Bromegrass, Downy: 5
[5]; [17]
  Bromegrass, Downy plant response rating (0 to 100 scale): 10
[5]; [18]
  Plant response rating, Bromegrass, Downy: 15
[5]; [19]
  Plant response rating, Bromegrass, Downy: 35
[6]; [16]
  Plant response rating, Crabgrass, Large: 55
[6]; [17]
  Crabgrass, Large plant response rating (0 to 100 scale): 60
[6]; [18]
  Plant response rating, Crabgrass, Large: 75
[6]; [19]
  Plant response rating, Crabgrass, Large: 80
[7]
  Ryegrass, Italian plant response rating (0 to 100 scale): 5
[7]; 125 g ai/ha
  Plant response rating, Ryegrass, Italian: 10
[7]; 250 g ai/ha
  Plant response rating, Ryegrass, Italian: 50
[8]
  Velvetleaf plant response rating (0 to 100 scale): 70
[8]; 125 g ai/ha
  Plant response rating, Velvetleaf: 70
[8]; 250 g ai/ha
  Plant response rating, Velvetleaf: 85
[9]; [17]
  Cupgrass, Woolly plant response rating (0 to 100 scale): 65
[9]; [18]
  Plant response rating, Cupgrass, Woolly: 70
[9]; [19]
  Plant response rating, Cupgrass, Woolly: 75
[10]; [16]
  Plant response rating, Foxtail, Giant: 70
[10]; [17]
  Foxtail, Giant plant response rating (0 to 100 scale): 75
[10]; [18]
  Plant response rating, Foxtail, Giant: 80
[10]; [19]
  Plant response rating, Foxtail, Giant: 85
[11]; [16]
  Plant response rating, Goosegrass: 70
[11]; [17]
  Goosegrass plant response rating (0 to 100 scale): 70
[11]; [18]
  Plant response rating, Goosegrass: 75
[11]; [19]
  Plant response rating, Goosegrass: 75
[12]; [16]
  Plant response rating, Foxtail, Green: 20
[12]; [17]
  Foxtail, Green plant response rating (0 to 100 scale): 70
[12]; [18]
  Plant response rating, Foxtail, Green: 80
[12]; [19]
  Plant response rating, Foxtail, Green: 85
Corn (Zea mays); [16]
  Plant response rating, Corn: 0
Corn (Zea mays); [17]
  Corn plant response rating (0 to 100 scale): 10
Corn (Zea mays); [18]
  Plant response rating, Corn: 20
Corn (Zea mays); [19]
  Plant response rating, Corn: 45
[13]; [17]
  Nutsedge, Yellow plant response rating (0 to 100 scale): 5
[13]; [18]
  Plant response rating, Nutsedge, Yellow: 15
[13]; [19]
  Plant response rating, Nutsedge, Yellow: 40
[14]; [16]
  Plant response rating, Blackgrass: 0
[14]; [17]
  Blackgrass plant response rating (0 to 100 scale): 5
[14]; [18]
  Plant response rating, Blackgrass: 10
[14]; [19]
  Plant response rating, Blackgrass: 40
[15]; [16]
  Plant response rating, Bermudagrass: 70
[15]; [17]
  Bermudagrass plant response rating (0 to 100 scale): 70
[15]; [18]
  Plant response rating, Bermudagrass: 75
[15]; [19]
  Plant response rating, Bermudagrass: 85
